According to patent US12680083B2, “Media for culturing naive human pluripotent stem cells” (Yeda Research and Development Co. Ltd., priority 2014, dated 2026):

Tests used:
[1] = test system: WIBR3 hESCs with ESRRB mCherry knock-in reporter; test: FACS analysis of ESRRB-mCherry knock-in reporter; type: cell-based, human
Text: FIGS. 26A-C depict the targeting human ESRRB (a gene/transcription factor) locus with knockin mCherry fluorescent reporter. FIG. 26A-Targeting scheme is illustrated. Scissors indicate CRISPR-sgRNA cut site. In order to create mCherry reporter co-expressed with endogenous human ESRRB locus, the present inventors have chosen to knock in p2a-mCherry coding sequence in frame with the last exon of the human ESRRB gene. The present inventors have inserted oligos specific for the stop codon region of ESRRB gene into px335 plasmid which encodes CAS9 nickase and sgRNA. The present inventors have targeted WIBR3 human ESC OCT4 GFP knockin cell line. The efficiency of the targeting was about 30% (15 out of 48 clones) as verified by external PCR. Correct targeting was also verified by Southern Blot (SB) with external and anti-mCherry probes (FIG. 26B). After Neo cassette excision with Flippase, the whole targeted locus from one of the clones was amplified and sequenced. Clones 2-6 were correctly targeted (FIG. 26C).
FIGS. 26D-H are FACS analyses depicting expression of ESRRB-mCherry reporter in PSCs.

PKCμ = biological target: T1, PKCμ (Homo sapiens, UniProt Q15139); conditions: cited from earlier work
T1 sequence (Q15139 1-912): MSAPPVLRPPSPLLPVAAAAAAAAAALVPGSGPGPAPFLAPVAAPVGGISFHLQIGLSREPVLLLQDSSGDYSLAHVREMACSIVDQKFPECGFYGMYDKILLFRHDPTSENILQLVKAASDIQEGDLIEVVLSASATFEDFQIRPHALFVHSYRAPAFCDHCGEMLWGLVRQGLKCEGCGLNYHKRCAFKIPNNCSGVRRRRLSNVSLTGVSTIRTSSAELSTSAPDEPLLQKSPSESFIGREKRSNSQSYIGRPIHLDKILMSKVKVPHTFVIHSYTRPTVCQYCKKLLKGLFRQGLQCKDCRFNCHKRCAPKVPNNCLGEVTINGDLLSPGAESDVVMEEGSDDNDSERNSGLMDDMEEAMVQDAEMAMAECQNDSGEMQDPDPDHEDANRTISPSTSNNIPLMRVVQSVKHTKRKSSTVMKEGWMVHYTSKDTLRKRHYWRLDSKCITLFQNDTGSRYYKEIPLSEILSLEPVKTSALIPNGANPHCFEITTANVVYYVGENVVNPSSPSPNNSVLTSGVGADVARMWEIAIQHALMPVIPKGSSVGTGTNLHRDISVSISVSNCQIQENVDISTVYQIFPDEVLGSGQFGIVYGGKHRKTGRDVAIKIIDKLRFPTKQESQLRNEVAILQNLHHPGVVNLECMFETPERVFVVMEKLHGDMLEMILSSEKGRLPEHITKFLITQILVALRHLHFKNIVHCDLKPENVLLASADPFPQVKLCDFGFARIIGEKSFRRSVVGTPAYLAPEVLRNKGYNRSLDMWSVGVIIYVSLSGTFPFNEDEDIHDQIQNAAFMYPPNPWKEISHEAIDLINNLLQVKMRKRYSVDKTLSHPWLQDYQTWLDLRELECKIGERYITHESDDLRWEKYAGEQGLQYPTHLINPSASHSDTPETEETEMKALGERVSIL

PKCγ = PKCγ (Homo sapiens, UniProt P05129); conditions: cited from earlier work
PKCα = PKCα (Homo sapiens, UniProt P17252); conditions: cited from earlier work
PKCβ = PKCβ (Homo sapiens, UniProt P05771); conditions: cited from earlier work
PKCδ = PKCδ (Homo sapiens, UniProt Q05655); conditions: cited from earlier work
PKCζ = biological target: T2, PKCζ (Homo sapiens, UniProt Q05513); conditions: cited from earlier work
T2 sequence (Q05513 1-592): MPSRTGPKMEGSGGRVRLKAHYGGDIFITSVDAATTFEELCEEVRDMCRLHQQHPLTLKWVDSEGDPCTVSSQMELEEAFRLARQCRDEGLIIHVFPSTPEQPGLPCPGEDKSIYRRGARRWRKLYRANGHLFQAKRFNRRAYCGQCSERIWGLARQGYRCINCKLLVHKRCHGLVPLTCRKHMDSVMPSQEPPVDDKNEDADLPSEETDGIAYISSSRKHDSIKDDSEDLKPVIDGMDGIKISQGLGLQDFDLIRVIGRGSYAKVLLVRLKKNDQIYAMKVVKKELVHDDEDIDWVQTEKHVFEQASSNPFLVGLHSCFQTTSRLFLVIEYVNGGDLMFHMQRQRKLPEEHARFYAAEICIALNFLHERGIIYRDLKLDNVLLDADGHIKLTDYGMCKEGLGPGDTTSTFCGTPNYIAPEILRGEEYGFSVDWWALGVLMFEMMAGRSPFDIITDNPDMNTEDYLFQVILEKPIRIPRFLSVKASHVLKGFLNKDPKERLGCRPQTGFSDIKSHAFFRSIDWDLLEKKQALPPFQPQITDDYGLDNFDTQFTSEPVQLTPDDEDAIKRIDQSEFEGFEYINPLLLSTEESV

Chain of PKCδ (Q05655 whole entry): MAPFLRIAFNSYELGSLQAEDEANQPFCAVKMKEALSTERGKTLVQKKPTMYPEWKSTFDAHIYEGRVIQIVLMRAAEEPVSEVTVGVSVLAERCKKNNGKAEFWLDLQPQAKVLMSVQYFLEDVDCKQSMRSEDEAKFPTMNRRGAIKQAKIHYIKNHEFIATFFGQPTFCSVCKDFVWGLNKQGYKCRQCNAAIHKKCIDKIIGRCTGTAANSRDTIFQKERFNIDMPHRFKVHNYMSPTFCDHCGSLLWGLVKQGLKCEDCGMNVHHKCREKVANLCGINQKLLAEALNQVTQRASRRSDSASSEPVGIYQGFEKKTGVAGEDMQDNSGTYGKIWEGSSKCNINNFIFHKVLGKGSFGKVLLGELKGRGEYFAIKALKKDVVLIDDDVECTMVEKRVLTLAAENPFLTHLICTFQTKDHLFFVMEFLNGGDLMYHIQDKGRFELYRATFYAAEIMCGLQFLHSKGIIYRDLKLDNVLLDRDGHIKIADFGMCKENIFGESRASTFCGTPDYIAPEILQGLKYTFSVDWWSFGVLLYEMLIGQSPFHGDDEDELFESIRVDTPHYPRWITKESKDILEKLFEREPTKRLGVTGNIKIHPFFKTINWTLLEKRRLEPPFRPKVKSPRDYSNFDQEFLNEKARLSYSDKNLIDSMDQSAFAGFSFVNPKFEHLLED
Chain of PKCβ (P05771 whole entry, species assumed): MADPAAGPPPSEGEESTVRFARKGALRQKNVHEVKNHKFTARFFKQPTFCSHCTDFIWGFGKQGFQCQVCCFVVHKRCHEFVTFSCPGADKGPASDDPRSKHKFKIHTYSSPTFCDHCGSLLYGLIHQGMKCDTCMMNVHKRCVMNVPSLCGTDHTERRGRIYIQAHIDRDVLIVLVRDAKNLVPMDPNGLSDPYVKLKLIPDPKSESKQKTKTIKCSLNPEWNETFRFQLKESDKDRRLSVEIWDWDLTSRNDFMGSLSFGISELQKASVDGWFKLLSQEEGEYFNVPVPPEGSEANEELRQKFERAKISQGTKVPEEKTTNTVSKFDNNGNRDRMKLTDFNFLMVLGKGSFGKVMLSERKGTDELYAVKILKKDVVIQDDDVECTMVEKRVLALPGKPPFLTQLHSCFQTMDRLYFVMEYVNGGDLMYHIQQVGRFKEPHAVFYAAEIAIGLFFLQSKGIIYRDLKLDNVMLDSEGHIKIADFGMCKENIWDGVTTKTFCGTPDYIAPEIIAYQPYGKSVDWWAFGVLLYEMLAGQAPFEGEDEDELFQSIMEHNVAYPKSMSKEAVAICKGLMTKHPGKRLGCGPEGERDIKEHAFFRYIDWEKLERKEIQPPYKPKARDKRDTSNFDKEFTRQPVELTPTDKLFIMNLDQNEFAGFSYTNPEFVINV

Q: Which “ESRRB mCherry expression” value ([1]; conditions 136 with BIX01294 removed from the culture medium) does the source give for `COc1cc2nc(N3CCCN(C)CC3)nc(NC3CCN(Cc4ccccc4)CC3)c2cc1OC` [BIX01294] here?
A: The value was “this effect is lost”.

Q: Which IC50 (PKCμ) does the source give for `COc1ccc2c(c1)c(C1=C(c3c[nH]c4ccccc34)C(=O)NC1=O)cn2CCCN(C)C` [Go6983] here?
A: Its IC50 is 20000 nM.

Q: What about the IC50 (PKCγ) of the same molecule?
A: Its IC50 is 6 nM.

Q: And the IC50 (PKCα)?
A: The IC50 was 7 nM.

Q: What about the IC50 (PKCβ) of the same molecule?
A: The IC50 was 7 nM.

Q: What about the IC50 (PKCδ) of the same molecule?
A: Its IC50 is 10 nM.

Q: What about the IC50 (PKCζ) of the same molecule?
A: The IC50 was 60 nM.

B1: Activin A: also known as Inhibin beta A, INHBA; activator of TGF/ACTIVIN pathway (protein, listed as Homo sapiens)
chain: MPLLWLRGFLLASCWIIVRSSPTPGSEGHSAAPDCPSCALAALPKDVPNSQPEMVEAVKKHILNMLHLKKRPDVTQPVPKAALLNAIRKLHVGKVGENGYVEIEDDIGRRAEMNELMEQTSEIITFAESGTARKTLHFEISKEGSDLSVVERAEVWLFLKVPKANRTRTKVTIRLFQQQKHPQGSLDTGEEAEEVGLKGERSELLLSEKVVDARKSTWHVFPVSSSIQRLLDQGKSSLDVRIACEQCQESGASLVLLGKKKKKEEEGEGKKKGGGEGGAGADEEKEQSHRPFLMLQARQSEDHPHRRRRRGLECDGKVNICCKKQFFVSFKDIGWNDWIIAPSGYHANYCEGECPSHIAGTSGSSLSFHSTVINHYRMRGHSPFANLKSCCVPTKLRPMSMLYYDDGQNIIKKDIQNMIVEECGCS
Q: For B1, which “ESRRB mCherry expression” value ([1]; conditions 136 with Activin A added) is on record?
A: The value was “this effect is lost”.
